Laboratory results reported in ChEMBL document CHEMBL1131281, “Cyclopentanedi- and tricarboxylic acids as squalene synthase inhibitors: syntheses and evaluation” (Bioorg Med Chem Lett, 1998).

Target: T1, Squalene synthase (Rattus norvegicus, UniProt Q02769)
T1 sequence (Q02769 whole entry): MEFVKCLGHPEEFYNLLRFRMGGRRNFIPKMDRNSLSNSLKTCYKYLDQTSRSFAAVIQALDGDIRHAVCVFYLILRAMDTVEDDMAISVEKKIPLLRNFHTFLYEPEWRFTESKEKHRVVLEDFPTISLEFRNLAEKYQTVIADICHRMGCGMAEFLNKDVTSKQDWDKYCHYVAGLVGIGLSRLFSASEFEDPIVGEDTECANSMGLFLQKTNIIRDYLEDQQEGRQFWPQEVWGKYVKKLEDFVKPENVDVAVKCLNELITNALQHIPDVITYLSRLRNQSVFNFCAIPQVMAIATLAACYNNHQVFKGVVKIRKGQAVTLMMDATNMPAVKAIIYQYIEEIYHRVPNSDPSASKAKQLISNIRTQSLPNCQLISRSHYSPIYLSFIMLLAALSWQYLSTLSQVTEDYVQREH
Test: Percent inhibition of squalene synthase from rat liver microsomes using [3H]farnesyl pyrophosphate (FPP) as substrate; NA indicates <20% inhibition at 1 uM concentration; call rule not given here

IC50 | Structure (SMILES)
Not Active | CCCN(Cc1ccc(Oc2ccccc2)cc1)C(=O)[C@H]1C[C@@H](C(=O)N(CCC)Cc2ccc(Oc3ccccc3)cc2)[C@](CC(=O)O)(C(=O)O)C1
Not Active | CCCN(Cc1ccc(Oc2ccccc2)cc1)C(=O)[C@@H]1[C@H](C(=O)O)[C@@H](C(=O)N(CCC)Cc2ccc(Oc3ccccc3)cc2)O[C@H]1C(=O)O

Target: T2, Squalene synthase (Rattus norvegicus) (UniProt Q02769)
T2 sequence (whole entry): T1 sequence (Q02769 whole entry)
Test: Percent inhibition of squalene synthase from rat liver microsomes using [3H]farnesyl pyrophosphate (FPP) as substrate at 1 uM concentration

inhibition | Structure (SMILES)
25% | CCCN(Cc1ccc(Oc2ccccc2)cc1)C(=O)[C@H]1C[C@@H](C(=O)N(CCC)Cc2ccc(Oc3ccccc3)cc2)[C@@](CC(=O)O)(C(=O)O)[C@H]1C(=O)O
24% | CCCN(Cc1ccc(Oc2ccccc2)cc1)C(=O)[C@@H]1[C@@H](C(=O)N(CCC)Cc2ccc(Oc3ccccc3)cc2)[C@@H](C(=O)O)C[C@@H]1C(=O)O
38% | CCCN(Cc1ccc(Oc2ccccc2)cc1)C(=O)[C@H]1C[C@@H](C(=O)N(CCC)Cc2ccc(Oc3ccccc3)cc2)[C@@](CC(=O)O)(C(=O)O)[C@@H]1C(=O)O
44% | CCCN(Cc1ccc(Oc2ccccc2)cc1)C(=O)[C@H]1C[C@@H](C(=O)N(CCC)Cc2ccc(Oc3ccccc3)cc2)[C@@](CC(=O)O)(C(=O)O)C1
45% | CCCN(Cc1ccc(Oc2ccccc2)cc1)C(=O)[C@@H]1[C@@H](C(=O)N(CCC)Cc2ccc(Oc3ccccc3)cc2)[C@H](C(=O)O)C[C@@H]1C(=O)O

Target: T1, Squalene synthase
Test: Compound was tested for inhibition of squalene synthase from rat liver microsomes using [3H]farnesyl pyrophosphate (FPP) as substrate

IC50 | Structure (SMILES)
240 nM | CCCN(Cc1ccc(Oc2ccccc2)cc1)C(=O)[C@H]1C[C@@H](C(=O)N(CCC)Cc2ccc(Oc3ccccc3)cc2)[C@](CC(=O)O)(C(=O)O)[C@H]1C(=O)O
2900 nM | CCCN(Cc1ccc(Oc2ccccc2)cc1)C(=O)[C@H]1[C@@H](C(=O)O)[C@@H](C(=O)N(CCC)Cc2ccc(Oc3ccccc3)cc2)C[C@H]1C(=O)O
3000 nM | CCCN(Cc1ccc(Oc2ccccc2)cc1)C(=O)[C@H]1[C@@H](C(=O)O)[C@H](C(=O)O)O[C@@H]1C(=O)N(CCC)Cc1ccc(Oc2ccccc2)cc1
580 nM | CCCN(Cc1ccc(Oc2ccccc2)cc1)C(=O)[C@H]1C[C@@H](C(=O)N(CCC)Cc2ccc(Oc3ccccc3)cc2)[C@H](C(=O)O)[C@H]1C(=O)O
170 nM | CCCN(Cc1ccc(Oc2ccccc2)cc1)C(=O)[C@H]1C[C@H](C(=O)N(CCC)Cc2ccc(Oc3ccccc3)cc2)[C@H](C(=O)O)[C@H]1C(=O)O
9100 nM | CCCN(Cc1ccc(Oc2ccccc2)cc1)C(=O)[C@@H]1[C@H](C(=O)N(CCC)Cc2ccc(Oc3ccccc3)cc2)[C@H](C(=O)O)C[C@@H]1C(=O)O
